Experimental data as given in publication PMC5645785 (Organic & biomolecular chemistry, 2016).
Like-named read-outs stand apart in the source and are kept apart here.

How the values were obtained:
[1] = target: Escherichia coli GS (EcGS) (Escherichia coli, UniProt P0A6U8); assay: EcGS activity, glycogen synthesis direction, absence of ADP; assay type: biochemical
[2] = target: Sucrose synthase 4 (SuSy4) (Solanum tuberosum, UniProt P10691); assay: SuSy4 activity, sucrose synthesis direction, absence of UDP; assay type: biochemical, Solanum tuberosum L.
[3] = target: T1, Rabbit muscle GPa (RMGPa) (Oryctolagus cuniculus, UniProt P00489); assay: RMGPa activity, glycogen phosphorolysis direction; assay type: biochemical; conditions: read-out: Km of RMGPa
T1 sequence (P00489 1-843): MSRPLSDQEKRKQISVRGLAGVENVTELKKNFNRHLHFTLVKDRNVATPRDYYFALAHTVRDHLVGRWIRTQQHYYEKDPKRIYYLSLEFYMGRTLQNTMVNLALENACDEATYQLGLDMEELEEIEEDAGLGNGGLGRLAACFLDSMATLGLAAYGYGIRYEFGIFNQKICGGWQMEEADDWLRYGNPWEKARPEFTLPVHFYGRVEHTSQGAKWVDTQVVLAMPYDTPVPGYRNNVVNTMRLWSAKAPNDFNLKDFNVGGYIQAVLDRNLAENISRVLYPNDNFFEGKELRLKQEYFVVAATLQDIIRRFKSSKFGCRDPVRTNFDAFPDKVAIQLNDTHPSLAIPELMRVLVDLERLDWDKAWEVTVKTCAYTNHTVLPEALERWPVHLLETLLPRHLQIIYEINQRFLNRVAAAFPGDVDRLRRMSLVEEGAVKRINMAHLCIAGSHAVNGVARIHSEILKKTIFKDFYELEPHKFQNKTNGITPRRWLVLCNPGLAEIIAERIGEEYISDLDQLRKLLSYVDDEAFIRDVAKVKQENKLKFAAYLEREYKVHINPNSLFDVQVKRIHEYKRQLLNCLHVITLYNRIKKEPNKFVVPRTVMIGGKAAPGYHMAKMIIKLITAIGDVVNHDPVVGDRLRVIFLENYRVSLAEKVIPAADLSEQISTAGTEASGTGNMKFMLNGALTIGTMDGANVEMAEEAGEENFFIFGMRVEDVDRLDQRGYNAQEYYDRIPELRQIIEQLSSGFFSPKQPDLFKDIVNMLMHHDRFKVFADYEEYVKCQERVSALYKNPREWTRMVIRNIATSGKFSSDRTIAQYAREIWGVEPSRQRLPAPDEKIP

[4] = system: E. coli trehalose-6-phosphate synthase; conditions: cited from earlier work; for IC50: read-out: IC50 trehalose-6-phosphate synthase

Chain of Sucrose synthase 4 (SuSy4) (P10691 whole entry): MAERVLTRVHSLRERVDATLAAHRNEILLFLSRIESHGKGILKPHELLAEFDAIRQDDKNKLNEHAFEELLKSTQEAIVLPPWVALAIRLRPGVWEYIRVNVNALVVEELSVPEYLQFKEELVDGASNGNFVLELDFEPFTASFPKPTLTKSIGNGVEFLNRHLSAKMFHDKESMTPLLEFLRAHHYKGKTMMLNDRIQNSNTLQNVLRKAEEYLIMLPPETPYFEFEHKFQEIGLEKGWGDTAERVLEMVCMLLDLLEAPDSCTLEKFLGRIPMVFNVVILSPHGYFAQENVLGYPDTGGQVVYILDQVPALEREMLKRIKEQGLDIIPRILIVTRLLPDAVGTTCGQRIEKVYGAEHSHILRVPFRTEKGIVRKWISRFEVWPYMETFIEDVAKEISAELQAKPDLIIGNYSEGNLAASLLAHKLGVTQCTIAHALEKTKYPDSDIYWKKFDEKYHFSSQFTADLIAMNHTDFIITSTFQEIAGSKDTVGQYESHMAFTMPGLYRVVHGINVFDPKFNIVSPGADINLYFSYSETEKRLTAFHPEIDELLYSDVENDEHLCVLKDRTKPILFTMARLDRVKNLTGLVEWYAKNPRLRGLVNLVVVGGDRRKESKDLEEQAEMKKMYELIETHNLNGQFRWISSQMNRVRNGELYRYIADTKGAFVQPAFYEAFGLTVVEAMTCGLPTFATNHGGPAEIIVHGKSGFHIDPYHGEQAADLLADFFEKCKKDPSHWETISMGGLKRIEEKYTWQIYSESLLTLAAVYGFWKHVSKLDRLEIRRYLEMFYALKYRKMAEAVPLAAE
Chain of Escherichia coli GS (EcGS) (P0A6U8 whole entry): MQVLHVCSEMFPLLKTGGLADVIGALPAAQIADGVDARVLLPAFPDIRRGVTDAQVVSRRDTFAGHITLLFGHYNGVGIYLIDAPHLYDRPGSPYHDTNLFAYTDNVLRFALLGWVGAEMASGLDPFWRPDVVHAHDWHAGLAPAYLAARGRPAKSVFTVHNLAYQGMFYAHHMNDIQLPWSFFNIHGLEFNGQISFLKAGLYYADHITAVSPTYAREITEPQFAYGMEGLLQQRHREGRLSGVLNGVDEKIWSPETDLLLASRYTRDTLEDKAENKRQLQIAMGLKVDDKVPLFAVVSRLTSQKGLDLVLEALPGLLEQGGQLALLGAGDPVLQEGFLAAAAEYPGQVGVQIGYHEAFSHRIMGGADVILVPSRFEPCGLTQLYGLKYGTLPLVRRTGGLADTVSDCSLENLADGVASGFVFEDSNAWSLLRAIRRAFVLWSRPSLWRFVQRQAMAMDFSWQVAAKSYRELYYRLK

## Nc1ncnc2c1ncn2[C@@H]1O[C@H](COP(=O)(O)OP(=O)(O)O)[C@@H](O)[C@H]1O [ADP]
[1]; read-out: Ki EcGS, substrate ADPG
  Ki: 87 ± 6 µM
[1]; with respect to ADPG
  Type of Inhibition EcGS: Competitive

## OC[C@H]1NC[C@@H](O)[C@@H]1O [DAB, 1,4-dideoxy-1,4-imino-D-arabinitol]
[1]
  IC50: 1320 ± 10 µM
[2]
  IC50: 246.5 ± 0.1 µM

## OC[C@@H]1NC[C@H](O)[C@H]1O [LAB]
[1]; remaining activity, 0.5 mM inhibitor, 2 mM ADPG and 4 mg mL−1 glycogen
  Activity (%) EcGS: 89%
[2]; remaining activity, 0.5 mM inhibitor, 5 mM UDPG and 30 mM fructose
  Activity (%) SuSy4: 89%

## O=P(O)(O)O [Pi, inorganic phosphate]
[3]
  Km: 1410 µM

## O=c1ccn([C@@H]2O[C@H](COP(=O)(O)OP(=O)(O)O)[C@@H](O)[C@H]2O)c(=O)[nH]1 [UDP]
[2]; read-out: Ki SuSy4, substrate UDPG
  Ki: 145 ± 48 µM
[2]; with respect to UDPG
  Type of Inhibition SuSy4: Competitive

## validoxylamine-6′-phosphate
[4]; 0.15 mM UDP
  improvement of IC50 by UDP: ca. 100 fold
[4]; addition of 0.15 mM UDP
  IC50: 41 µM
[4]; without UDP
  IC50: 5300 µM
